Here are results for 68 molecules from patent US11459321B2, “Broad spectrum antiviral compositions and methods” (priority 2017, dated 2022).

For orientation: IC50 means the concentration needed to halve the response being measured.

The test system of one test is human cytomegalovirus (HCMV). Nature of the test: microbe, parasite or virus in culture. Format: cell-based. The settings on record: Human MRCS cells, 0.01 IU per cell, virus yield at 7 days post infection, mCherry positive cells.
`c1cnn(-c2ccc(Cc3cnc(N4CCc5cc(-n6ccnc6)ccc5C4)s3)cc2)c1` [Example 18]: the IC50 amounted to 1.08 µM.

Still in this test, the particulars now being: Human betaherpesvirus 5, 168 h; Human MRCS cells, 0.01 IU per cell, virus yield at 7 days post infection, mCherry positive cells.
The molecule `CC(C)c1cc(Cc2cnc(N3CCc4ccc(-c5cn(C)nn5)cc4C3)s2)cc(-n2cccn2)c1` [Example 1] displayed an IC50 of 11.7 µM.
`Cn1cc(-c2ccc3c(c2)CN(c2ncc(Cc4ccc(-n5cccn5)cc4)s2)CC3)nn1` [Example 2] came in with a half-inhibitory concentration (IC50) of 1.17 µM.
In turn, `Cn1cc(-c2ccc3c(c2)CN(c2ncc(Cc4cccc(-n5cccn5)c4)s2)CC3)nn1` [Example 3] registered an IC50 of 1.91 µM.
For `c1cc(Cc2cnc(N3CCc4ccc(-c5c[nH]nn5)cc4C3)s2)cc(-n2cccn2)c1` [Example 4], it took 0.758 µM to reach half-maximal inhibition (IC50).
On the same count and under the same terms, with `c1cnn(-c2ccc(Cc3cnc(N4CCc5ccc(-c6c[nH]nn6)cc5C4)s3)cc2)c1` [Example 5] the figure was 0.807 µM.
As for `Cc1nc(-c2ccc3c(c2)CN(c2ncc(Cc4ccc(-n5cccn5)cc4)s2)CC3)no1` [Example 6], the IC50 was determined as 3.37 µM.
Molecule `COCCn1nncc1-c1ccc2c(c1)CN(c1ncc(Cc3ccc(-n4cccn4)cc3)s1)CC2` [Example 7] came in with an IC50 of 1.7 µM.
Same read-out and setting: with `COCCn1nncc1-c1ccc2c(c1)CN(c1ncc(Cc3cccc(-n4cccn4)c3)s1)CC2` [Example 8] the figure was 2.01 µM; with `c1cnn(-c2ccc(Cc3cnc(N4CCc5ccc(-n6ccnc6)cc5C4)s3)cc2)c1` [Example 9], 0.479 µM.
The same measure, in the same setting: the value for `COCCn1cc(-c2ccc3c(c2)CN(c2ncc(Cc4ccc(-n5cccn5)cc4)s2)CC3)nn1` [Example 11] was 1.7 µM; that for `COCCn1cc(-c2ccc3c(c2)CN(c2ncc(Cc4cccc(-n5cccn5)c4)s2)CC3)nn1` [Example 12] was 5.98 µM; that for `Cc1cn(-c2ccc3c(c2)CN(c2ncc(Cc4ccc(-n5cccn5)cc4)s2)CC3)cn1` [Example 13] was 1.06 µM.
The molecule `Cc1cn(-c2ccc3c(c2)CN(c2ncc(Cc4ccc(-n5cccn5)cc4)s2)CC3)c(C)n1` [Example 14] came in with an IC50 of 0.453 µM.
`c1cc(Cc2cnc(N3CCc4ccc(-c5nc[nH]n5)cc4C3)s2)cc(-n2cccn2)c1` [Example 15] yielded an IC50 of 1.85 µM.
In the case of `c1cnn(-c2ccc(Cc3cnc(N4CCc5ccc(-c6nc[nH]n6)cc5C4)s3)cc2)c1` [Example 16], half-maximal inhibition (IC50) required 0.2 µM.
Molecule `c1cn(-c2ccc(Cc3cnc(N4CCc5ccc(-n6ccnc6)cc5C4)s3)cc2)cn1` [Example 17] yielded an IC50 of 0.748 µM.
`Cc1cn(-c2ccc3c(c2)CN(c2ncc(Cc4cccc(-n5cccn5)c4)s2)CC3)c(C)n1` [Example 19] yielded an IC50 of 1.3 µM.
On the same count and under the same terms, the value for `c1cnn(-c2ccc(Cc3cnc(N4CCc5ccc(-c6ncc[nH]6)cc5C4)s3)cc2)c1` [Example 20] was 5.27 µM; that for `Cc1cn(-c2ccc3c(c2)CN(c2ncc(Cc4cccc(-n5cccn5)c4)s2)CC3)cn1` [Example 21] was 2.62 µM; that for `COc1ccc(Cc2cnc(N3CCc4ccc(-n5cc(C)nc5C)cc4C3)s2)cc1-n1cccn1` [Example 22] was 0.306 µM.
The same measure, in the same setting: the value for `Cc1cn(-c2ccc(Cc3cnc(N4CCc5ccc(-n6cc(C)nc6C)cc5C4)s3)cc2)c(C)n1` [Example 23] was 0.707 µM; that for `O=C1OCCN1c1ccc2c(c1)CN(c1ncc(Cc3ccc(-n4cccn4)cc3)s1)CC2` [Example 24] was 0.353 µM; that for `O=C1NCCN1c1ccc2c(c1)CN(c1ncc(Cc3ccc(-n4cccn4)cc3)s1)CC2` [Example 25] was 0.911 µM.
The molecule `CN1CCN(c2ccc3c(c2)CN(c2ncc(Cc4ccc(-n5cccn5)cc4)s2)CC3)C1=O` [Example 26] displayed an IC50 of 0.637 µM.
Regarding `COc1cc(Cc2cnc(N3CCc4ccc(-n5cc(C)nc5C)cc4C3)s2)ccc1-n1cccn1` [Example 27], the IC50 worked out at 0.345 µM.
The same measure, in the same setting: the value for `O=C1OCCN1c1ccc2c(c1)CN(c1ncc(Cc3cccc(-n4cccn4)c3)s1)CC2` [Example 28] was 1.89 µM; that for `O=C1OCCN1c1ccc2c(c1)CN(c1ncc(Cc3ccc(-c4ncccn4)cc3)s1)CC2` [Example 29] was 0.858 µM.
Still for that read-out and setting: with `N#Cc1ccc(Cc2cnc(N3CCc4ccc(N5CCOC5=O)cc4C3)s2)cc1` [Example 30] the figure was 4.42 µM; with `O=C1OCCN1c1ccc2c(c1)CN(c1ncc(Cc3ccc(N4CCOCC4)cc3)s1)CC2` [Example 31], 0.803 µM.
The molecule `O=C1OCCN1c1ccc(Cc2cnc(N3CCc4ccc(N5CCOC5=O)cc4C3)s2)cc1` [Example 32] came in with an IC50 of 0.979 µM.
Molecule `O=C1OCCN1c1ccc2c(c1)CN(c1ncc(Cc3cccc(N4CCS(=O)(=O)CC4)c3)s1)CC2` [Example 33] had a 50% inhibitory concentration (IC50) of 0.903 µM.
The same measure, in the same setting: the value for `CS(=O)(=O)c1cccc(Cc2cnc(N3CCc4ccc(N5CCOC5=O)cc4C3)s2)c1` [Example 34] was 0.633 µM; that for `O=C1OCCN1c1ccc2c(c1)CN(c1ncc(Cc3cccc(N4CCOCC4)c3)s1)CC2` [Example 35] was 0.891 µM.
On the same count and under the same terms, with `O=C1OCCN1c1ccc2c(c1)CN(c1ncc(Cc3ccc(N4CCS(=O)(=O)CC4)cc3)s1)CC2` [Example 36] the figure was 0.666 µM; with `O=C1NCCCN1c1ccc2c(c1)CN(c1ncc(Cc3ccc(-n4cccn4)cc3)s1)CC2` [Example 37], 9.96 µM; with `CN1CCCN(c2ccc3c(c2)CN(c2ncc(Cc4ccc(-n5cccn5)cc4)s2)CC3)C1=O` [Example 38], 3.49 µM.
Same read-out and setting: the value for `N#Cc1cccc(Cc2cnc(N3CCc4ccc(N5CCOC5=O)cc4C3)s2)c1` [Example 39] was 2.75 µM.
Regarding `O=C1OCCN1c1cccc(Cc2cnc(N3CCc4ccc(N5CCOC5=O)cc4C3)s2)c1` [Example 40], the IC50 amounted to 0.956 µM.
Take `O=C1OCCN1c1ccc2c(c1)CN(c1ncc(Cc3ccc(-n4cccn4)nc3)s1)CC2` [Example 41]: the IC50 was 0.553 µM.
Turning to `O=C1COCCN1c1ccc2c(c1)CN(c1ncc(Cc3ccc(-n4cccn4)cc3)s1)CC2` [Example 42], the IC50 was 2.47 µM.
The same measure, in the same setting: with `CS(=O)(=O)c1ccc(Cc2cnc(N3CCc4ccc(N5CCOC5=O)cc4C3)s2)cc1` [Example 43] the figure was 0.617 µM; with `Cc1cn(-c2ccc(Cc3cnc(N4CCc5ccc(N6CCOC6=O)cc5C4)s3)cc2)c(C)n1` [Example 44], 0.552 µM.
On the same count and under the same terms, with `COCCN1CCCN(c2ccc3c(c2)CN(c2ncc(Cc4ccc(-n5cccn5)cc4)s2)CC3)C1=O` [Example 45] the figure was 1.78 µM; with `Cc1cn(-c2ccc3c(c2)CN(c2ncc(Cc4ccc(N5CCOCC5)cc4)s2)CC3)c(C)n1` [Example 46], 0.605 µM.
The same measure, in the same setting: the value for `Cc1cnc(C)n1-c1ccc2c(c1)CN(c1ncc(Cc3ccc(N4CCOCC4)cc3)s1)CC2` [Example 47] was 0.796 µM.
Molecule `Cc1cn(-c2ccc3c(c2)CN(c2ncc(Cc4ccc(N5CCS(=O)(=O)CC5)cc4)s2)CC3)c(C)n1` [Example 48] yielded an IC50 of 0.195 µM.
Still for that read-out and setting: with `O=C1CCCN1c1ccc2c(c1)CN(c1ncc(Cc3ccc(-c4ncccn4)cc3)s1)CC2` [Example 49] the figure was 0.516 µM; with `O=C1CCCN1c1ccc2c(c1)CN(c1ncc(Cc3ccc(N4CCOCC4)cc3)s1)CC2` [Example 50], 0.613 µM.
Same read-out and setting: the value for `O=C1CCCN1c1ccc2c(c1)CN(c1ncc(Cc3ccc(N4CCS(=O)(=O)CC4)cc3)s1)CC2` [Example 51] was 0.737 µM.
Still for that read-out and setting: the value for `CN1CCN(c2ccc3c(c2)CN(c2ncc(Cc4ccc(-c5ncccn5)cc4)s2)CC3)C1=O` [Example 52] was 1.36 µM; that for `O=C1NCCN1c1ccc2c(c1)CN(c1ncc(Cc3ccc(-c4ncccn4)cc3)s1)CC2` [Example 53] was above 4.17 µM; that for `c1cnc(-c2ccc(Cc3cnc(N4CCc5ccc(N6CCOCC6)cc5C4)s3)cc2)nc1` [Example 54] was 1.09 µM.
The molecule `O=C1OCCN1c1ccc2c(c1)CN(c1ncc(Cc3cncc(-n4cccn4)c3)s1)CC2` [Example 55] showed an IC50 of 3.83 µM.
Regarding `Cc1cn(-c2ccc3c(c2)CN(c2ncc(Cc4ccc(N5CCOC5=O)cc4)s2)CC3)c(C)n1` [Example 56], the IC50 is 0.317 µM.
Turning to `CN1CCN(c2ccc3c(c2)CN(c2ncc(Cc4ccc(N5CCOC5=O)cc4)s2)CC3)C1=O` [Example 57], inhibition was half-maximal at 0.742 µM (IC50).
Same read-out and setting: the value for `O=C1OCCN1c1ccc(Cc2cnc(N3CCc4ccc(N5CCOCC5)cc4C3)s2)cc1` [Example 58] was 1.13 µM; that for `CN1CCCN(c2ccc3c(c2)CN(c2ncc(Cc4ccc(C5CCOCC5)cc4)s2)CC3)C1=O` [Example 59] was 0.73 µM.
The molecule `CN1CCCN(c2ccc3c(c2)CN(c2ncc(Cc4ccc(N5CCOCC5)cc4)s2)CC3)C1=O` [Example 60] displayed an IC50 of 9.84 µM.
The same measure, in the same setting: with `CN1CCCN(c2ccc3c(c2)CN(c2ncc(Cc4ccc(S(C)(=O)=O)cc4)s2)CC3)C1=O` [Example 61] the figure was 4.71 µM.
Take `O=C1OCCN1c1ccc2c(c1)CN(c1ncc(Cc3ccc(C4CCOCC4)cc3)s1)CC2` [Example 62]: it took 0.362 µM to reach half-maximal inhibition (IC50).
In turn, `Cc1cn(-c2ccc3c(c2)CN(c2nc(Cc4cccc(-n5cccn5)c4)cs2)CC3)c(C)n1` [Example 66] registered an IC50 of 4.48 µM.
On the same count and under the same terms, with `Cc1cn(-c2ccc3c(c2)CN(c2ncc(Cc4cncc(-n5cccn5)c4)s2)CC3)c(C)n1` [Example 67] the figure was 1.19 µM; with `O=C1OCCCN1c1ccc2c(c1)CN(c1ncc(Cc3ccc(-n4cccn4)cc3)s1)CC2` [Example 69], 4.9 µM; with `CN1CCN(c2ccc3c(c2)CN(c2ncc(Cc4ccc(-n5cccn5)cc4)s2)CC3)CC1=O` [Example 70], 2.14 µM.
`O=C1CN(c2ccc3c(c2)CN(c2ncc(Cc4ccc(-n5cccn5)cc4)s2)CC3)CCN1` [Example 71] yielded an IC50 of 10 µM.
The same measure, in the same setting: the value for `c1cnn(-c2ccc(Cc3cnc(N4CCc5ccc(N6CCOCC6)cc5C4)s3)cc2)c1` [Example 72] was 0.537 µM; that for `O=C1CCCN1c1ccc2c(c1)CN(c1ncc(Cc3ccc(-n4cccn4)cc3)s1)CC2` [Example 73] was 0.423 µM.
